From US11304892B2, “Alteromonas macleodii Dow02-2 and its metabolites for improving skin moisturization” (TCI Co., Ltd., priority 2018, dated 2022)

Experiments:
Assay type in all cases: cell-based
Conditions in all cases: HPEK-50 cells, 10 μg/ml, 6 hours, 37° C.
KRT10 gene = test: qPCR relative expression of KRT10 gene in human epidermal keratinocytes HPEK-50
Protocol: (§1) The human epidermal keratinocytes HPEK-50 were cultured with a keratinocyte-SFM at 37° C. for 24 hours. Thereafter, the cells were divided into eight groups and respectively cultured with the following media at 37° C. for 6 hours: • 1. Control group: keratinocyte-SFM; • 2. “Supernatant” group: keratinocyte-SFM that was additionally added with 62.5 μg/ml of the supernatant obtained from [Preparation Example] B; • 3. “Fraction 1” group: keratinocyte-SFM that was additionally added with 62.5 μg/ml of the Fraction 1 obtained from [Preparation Example] C-1; • 4. “Fraction 2” group: keratinocyte-SFM that was additionally added with 62.5 μg/ml of the Fraction 2 obtained from [Preparation Example] C-1; • 5. […]
(§2) To investigate the effects of metabolites of Alteromonas macleodii Dow02-2 and 2-hydroxy-3-methylbutyric acid on moisturizing skin, inventors of the present invention collected the cells in each group of Example 1-1. […] Thereafter, the cDNA was subjected to a quantitative polymerase chain reaction (qPCR) by using a KAPA CYBR FAST qPCR kit (purchased from KAPA Biosystems) and ABI StepOne Plus™ System to determine the expression levels of moisturizing-related genes such as TGM1 gene, KRT1 gene, KRT10 gene, KRT14 gene, FLG gene, GBA gene and HAS3 gene in the cells of each group. […]

KRT14 gene = test: qPCR relative expression of KRT14 gene in human epidermal keratinocytes HPEK-50
Protocol: as §1, §2

FLG gene = test: qPCR relative expression of FLG gene in human epidermal keratinocytes HPEK-50
Protocol: as §1, §2

GBA gene = test: qPCR relative expression of GBA gene in human epidermal keratinocytes HPEK-50
Protocol: as §1, §2

TGM1 gene = test: qPCR relative expression of TGM1 gene in human epidermal keratinocytes HPEK-50
Protocol: as §1, §2

KRT1 gene = test: qPCR relative expression of KRT1 gene in human epidermal keratinocytes HPEK-50
Protocol: as §1, §2

HAS3 gene = test: qPCR relative expression of HAS3 gene in human epidermal keratinocytes HPEK-50
Protocol: as §1, §2

## CC(C)C(O)C(=O)O (stereo not shown) [2-hydroxy-3-methylbutyric acid]
KRT10 gene
  increase of expression level of KRT10 gene in comparison with the control group: 158%
KRT14 gene
  increase of expression level of KRT14 gene in comparison with the control group: 43%
FLG gene
  increase of expression level of FLG gene in comparison with the control group: 41%
GBA gene
  increase of expression level of GBA gene in comparison with the control group: 49%
TGM1 gene
  increase of expression level of TGM1 gene in comparison with the control group: 26%
KRT1 gene
  increase of expression level of KRT1 gene in comparison with the control group: 29%
HAS3 gene
  increase of expression level of HAS3 gene in comparison with the control group: 97%
